Data: US9497970B2, “Pesticide compounds” (priority 2013, dated 2016)

Legend:
Type in all cases: in vivo
[1] = tested on: Southern Armyworm (Spodoptera eridania), 2nd Instar Larvae; test: B.10 Southern Armyworm (Spodoptera eridania), 2nd Instar Larvae, sprayed lima bean plants; conditions: 96 h, 300 ppm, larvae on sprayed lima bean plants, 4 days after treatment, in comparison with untreated controls, read-out: mortality
Experimental: B.10 Southern Armyworm (Spodoptera eridania), 2nd Instar Larvae
(§1) The active compounds were formulated by a Tecan liquid handler in 100% cyclohexanone as a 10,000 ppm solution supplied in tubes. The 10,000 ppm solution was serially diluted in 100% cyclohexanone to make interim solutions. These served as stock solutions for which final dilutions were made by the Tecan in 50% acetone:50% water (v/v) into 5 or 10 ml glass vials. A nonionic surfactant (Kinetic®) was included in the solution at a volume of 0.01% (v/v). The vials were then inserted into an automated electrostatic sprayer equipped with an atomizing nozzle for application to plants/insects.
Lima bean plants (variety Sieva) were grown 2 plants to a pot and selected for treatment at the 1st true leaf stage. Test solutions were sprayed onto the foliage by an automated electrostatic plant sprayer equipped with an atomizing spray nozzle. The plants were dried in the sprayer fume hood and then removed from the sprayer. Each pot was placed into perforated plastic bags with a zip closure. About 10 to 11 armyworm larvae were placed into the bag and the bags zipped closed. Test plants were maintained in a growth room at about 25° C. and about 20-40% relative humidity for 4 days, avoiding direct exposure to fluorescent light (24 hour photoperiod) to prevent trapping of heat inside the bags. Mortality and reduced feeding were assessed 4 days after treatment, compared to untreated control plants.

[2] = tested on: Silverleaf Whitefly (Bemisia argentifoli); test: B.5 Silverleaf Whitefly (Bemisia argentifoli), sprayed cotton plants; conditions: 72 h, whitefly adults on sprayed cotton plants, 3 days after treatment, in comparison with untreated controls
Experimental: B.5 Silverleaf Whitefly (Bemisia argentifoli)
as §1
Cotton plants at the cotyledon stage (one plant per pot) were sprayed by an automated electrostatic plant sprayer equipped with an atomizing spray nozzle. The plants were dried in the sprayer fume hood and then removed from the sprayer. Each pot was placed into a plastic cup and about 10 to 12 whitefly adults (approximately 3-5 days old) were introduced. The insects were collected using an aspirator and a nontoxic Tygon® tubing connected to a barrier pipette tip. The tip, containing the collected insects, was then gently inserted into the soil containing the treated plant, allowing insects to crawl out of the tip to reach the foliage for feeding. Cups were covered with a reusable screened lid. Test plants were maintained in a growth room at about 25° C. and about 20-40% relative humidity for 3 days, avoiding direct exposure to fluorescent light (24 hour photoperiod) to prevent trapping of heat inside the cup. Mortality was assessed 3 days after treatment, compared to untreated control plants.

[3] = tested on: Yellow Fever Mosquito (Aedes aegypti); test: whole plant or invertebrate; conditions: 48 h, freshly hatched larvae in tap water, 2 days, in comparison with untreated controls, read-out: mortality (larval)
Outline: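 Freshly hatched A. aegypti larvae, 5–15 per well, were held in 200 μl tap water. Compounds formulated in 75:25 water:DMSO were sprayed at various concentrations, 2.5 μl per well by micro-atomizer, in two replicates.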

[4] = tested on: Diamond Back Moth (Plutella xylostella); test: B.1 Diamond Back Moth (Plutella xylostella), cabbage leaf dip; conditions: foliar, 500 ppm, 3rd instar larvae on dipped cabbage leaves, 72 hours after treatment, in comparison with untreated controls, read-out: mortality
Outline: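 Cabbage leaves dipped in compound in 1:1 water:acetone with 0.01% Kinetic HV surfactant, air-dried, then infested with ten 3rd-instar larvae on moist filter paper. Mortality scored at 72 h after treatment; feeding damage rated on a 0-100% scale.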

[5] = tested on: Boll Weevil (Anthonomus grandis); test: B.3 Boll Weevil (Anthonomus grandis), microtiter plate insect diet; conditions: 120 h, 800 ppm, sprayed onto insect diet, 5 days, in comparison with untreated controls, read-out: mortality (egg and larval)
Outline: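 Compounds in 25% DMSO/water sprayed at several concentrations onto insect diet in microtiter wells holding 5–10 A. grandis eggs, two replicates. Plates kept 5 days at about 25±1 °C and 75±5% RH. Egg and larval mortality scored visually.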

[6] = tested on: Orchid thrips (dichromothrips corbetti); test: B.12 Orchid thrips (dichromothrips corbetti), floral-immersion technique; conditions: adult thrips on dipped orchid petals, 72 hours after treatment, in comparison with untreated controls
Outline: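 Whole orchid flower petals were dipped in compound in 1:1 acetone:water with 0.01% v/v Kinetic HV, dried, and enclosed with about 20 adult thrips. They were held under continuous light at about 28° C. Live thrips were counted and percent mortality recorded at 72 hours.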

[7] = tested on: Tobacco Budworm (Heliothis virescens); test: B.7 Tobacco Budworm (Heliothis virescens) I, microtiter plate insect diet; conditions: 120 h, 800 ppm, sprayed onto insect diet, 5 days, in comparison with untreated controls, read-out: mortality (egg and larval)
Outline: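 96-well plates with insect diet and 15-25 H. virescens eggs; compounds in 75% water/25% DMSO sprayed onto diet at several concentrations, two replicates. Plates held at about 28±1° C. and 80±5% relative humidity for 5 days, then egg and larval mortality scored visually.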

[8] = tested on: Mediterranean Fruitfly (Ceratitis capitata); test: B.6 Mediterranean Fruitfly (Ceratitis capitata), microtiter plate insect diet; conditions: 120 h, 800 ppm, sprayed onto insect diet, 5 days, in comparison with untreated controls, read-out: mortality (egg and larval)
Outline: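 Insect diet with 50-80 C. capitata eggs sprayed with compounds formulated in 75% water/25% DMSO, at different concentrations, two replications. Incubation at about 28±1° C and 80±5% relative humidity for 5 days, then egg and larval mortality assessed visually.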

[9] = tested on: Green Peach Aphid (Myzus persicae); test: B.9 Green Peach Aphid (Myzus persicae), sprayed bell pepper plants; conditions: 120 h, infested bell pepper plants sprayed, after 5 days, in comparison with untreated controls
Experimental: B.9 Green Peach Aphid (Myzus persicae)
as §1, with “in 100% cyclohexa none as a” for “in 100% cyclohexanone as a”
Bell pepper plants at the first true-leaf stage were infested prior to treatment by placing heavily infested leaves from the main colony on top of the treatment plants. Aphids were allowed to transfer overnight to accomplish an infestation of 30-50 aphids per plant and the host leaves were removed. The infested plants were then sprayed by an automated electrostatic plant sprayer equipped with an atomizing spray nozzle. The plants were dried in the sprayer fume hood, removed, and then maintained in a growth room under fluorescent lighting in a 24-hr photoperiod at about 25° C. and about 20-40% relative humidity. Aphid mortality on the treated plants, relative to mortality on untreated control plants, was determined after 5 days.

CC(C)c1ccccc1N1CCCSC1=NN=Cc1ccc2c(ccc3c2ncn3-c2ccc(OC(F)(F)F)cc2)c1 (stereo in doubt) [C-55, (Z)-3-(2-isopropylphenyl)-2-((E)-((3-(4-(trifluoromethoxy)phenyl)-3H-naphtho[1,2-d]imidazol-7-yl)methylene)hydrazono)-1,3-thiazinane]
≥ 75%: mortality at 300 ppm [1] | mortality at 300 ppm [2] | mortality at 800 ppm [3] | mortality at 500 ppm [4] | mortality at 800 ppm [5] | mortality at 500 ppm [6] | mortality at 800 ppm [7] | mortality at 800 ppm [8]

CCc1ccccc1NC(=S)N/N=C/c1ccc2c(c1)CCc1c-2cnn1-c1ccc(OC(F)(F)F)cc1 [C-19, 1-(2-ethylphenyl)-3-[[3-[4-(trifluoromethoxy)phenyl]-5,8-dihydro-4H-benzo[e]indazol-7-ylidene]methylimino]thiourea]
≥ 75%: mortality at 300 ppm [2]

FC(F)(F)Oc1ccc(-n2cnc3c4ccc(/C=N/NC(=S)Nc5ccccc5C(F)(F)F)cc4ccc32)cc1 [C-24, 1-[[3-[4-(trifluoromethoxy)phenyl]-9aH-benzo[e]benzimidazol-7-ylidene]methylimino]-3-[2-(trifluoromethyl)phenyl]isothiourea]
≥ 75%: mortality at 300 ppm [2] | mortality at 500 ppm [4] | mortality at 800 ppm [5] | mortality at 500 ppm [6] | mortality at 800 ppm [8]

CC(C)c1ccccc1N1C(=O)CS/C1=N\N=C\c1ccc2c(ccc3c2ncn3-c2ccc(OC(F)(F)F)cc2)c1 [C-51]
≥ 75%: mortality at 300 ppm [1] | mortality at 300 ppm [2] | mortality at 800 ppm [3] | mortality at 500 ppm [4] | mortality at 800 ppm [5] | mortality at 800 ppm [9] | mortality at 500 ppm [6] | mortality at 800 ppm [7] | mortality at 800 ppm [8]

CS/C(=N\N=C\c1ccc2c(ccc3c2ncn3-c2ccc(OC(F)(F)F)cc2)c1)Nc1ccccc1C(C)C [C-52, (1Z,N′E)-methyl N-2-isopropylphenyl-N′-((3-(4-(trifluoromethoxy)phenyl)-3H-naphtho[1,2-d]imidazol-7-yl)methylene)carbamohydrazonothioate]
≥ 75%: mortality at 300 ppm [1] | mortality at 300 ppm [2] | mortality at 500 ppm [4] | mortality at 800 ppm [5] | mortality at 800 ppm [9] | mortality at 500 ppm [6] | mortality at 800 ppm [7] | mortality at 800 ppm [8]

CCc1cccc(CC)c1NC(=S)N/N=C/c1ccc2c(ccc3c2ncn3-c2ccc(OC(F)(F)F)cc2)c1 [C-70, 1-(2,6-diethylphenyl)-3-[(E)-[3-[4-(trifluoromethoxy)phenyl]benzo[e]benzimidazol-7-yl]methyleneamino] thiourea]
≥ 75%: mortality at 300 ppm [1] | mortality at 300 ppm [2] | mortality at 800 ppm [3] | mortality at 500 ppm [4] | mortality at 800 ppm [5] | mortality at 800 ppm [9] | mortality at 500 ppm [6] | mortality at 800 ppm [7]

Cc1cccc(Cl)c1NC(=S)N/N=C/c1ccc2c(ccc3c2ncn3-c2ccc(SC(F)(F)F)cc2)c1 [C-74, 1-(2-chloro-6-methyl-phenyl)-3-[(E)-[3-[4-(trifluoromethylsulfanyl)phenyl]benzo[e]benzimidazol-7-yl]methyleneamino]thiourea]
≥ 75%: mortality at 300 ppm [1] | mortality at 300 ppm [2] | mortality at 800 ppm [3] | mortality at 500 ppm [4] | mortality at 800 ppm [5] | mortality at 800 ppm [7] | mortality at 800 ppm [8]

Cc1cccc(C)c1NC(=S)N/N=C/c1ccc2c(ccc3c2ncn3-c2ccc(SC(F)(F)F)cc2)c1 [C-75, 1-(2,6-dimethylphenyl)-3-[(E)-[3-[4-(trifluoromethylsulfanyl)phenyl]benzo[e]benzimidazol-7-yl]methyleneamino] thiourea]
≥ 75%: mortality at 300 ppm [1] | mortality at 300 ppm [2] | mortality at 800 ppm [3] | mortality at 500 ppm [4] | mortality at 800 ppm [5] | mortality at 800 ppm [9] | mortality at 500 ppm [6] | mortality at 800 ppm [7] | mortality at 800 ppm [8]

CCc1cccc(C)c1NC(=S)N/N=C/c1ccc2c(ccc3c2ncn3-c2ccc(C(F)(F)F)cc2)c1 [C-78, 1-(2-ethyl-6-methyl-phenyl)-3-[(E)-[3-[4-(trifluoromethyl)phenyl]benzo[e]benzimidazol-7-yl]methyleneamino] thiourea]
≥ 75%: mortality at 300 ppm [1] | mortality at 300 ppm [2] | mortality at 500 ppm [4] | mortality at 800 ppm [5] | mortality at 500 ppm [6] | mortality at 800 ppm [7] | mortality at 800 ppm [8]

O=C(N/N=C/c1ccc2c(ccc3c2ncn3-c2ccc(OC(F)(F)F)cc2)c1)Nc1ccccc1Cl [C-100, 3-(2-chlorophenyl)-1-[[3-[4-(trifluoromethoxy)phenyl]-8H-benzo[e]benzimidazol-7-ylidene]methylimino] isourea]
≥ 75%: mortality at 300 ppm [2]

CSc1cccc(C)c1NC(=S)N/N=C/c1ccc2c(ccc3c2ncn3-c2ccc(OC(F)(F)F)cc2)c1 [C-103, 1-(2-methyl-6-methylsulfanyl-phenyl)-3-[(E)-[3-[4-(trifluoromethoxy)phenyl]benzo[e]benzimidazol-7-yl]methyleneamino]thiourea]
≥ 75%: mortality at 300 ppm [1] | mortality at 300 ppm [2] | mortality at 800 ppm [3] | mortality at 500 ppm [4] | mortality at 800 ppm [5] | mortality at 500 ppm [6] | mortality at 800 ppm [7] | mortality at 800 ppm [8]

Cc1cccc(C)c1NC(=S)N/N=C/c1ccc2c(ccc3c2ncn3-c2ccc(C(F)(F)F)cn2)c1 [C-109, 1-(2,6-dimethylphenyl)-3-[(E)-[3-[5-(trifluoromethyl)-2-pyridyl]benzo[e]benzimidazol-7-yl]methyleneamino] thiourea]
≥ 75%: mortality at 300 ppm [2] | mortality at 800 ppm [3] | mortality at 500 ppm [4] | mortality at 800 ppm [5] | mortality at 800 ppm [9] | mortality at 800 ppm [7] | mortality at 800 ppm [8]
